The test system of the experiment is T1, AMWEst.
T1 construct: primer keeps native start codon (predicted signal peptide 1-22, LHA-EQ); ultrafiltered extracellular medium, not purified; about 50 kDa on SDS-PAGE, probably N-glycosylated
The experiment in a line: spectrophotometric p-nitrophenol release at […] nm, Lineweaver-Burk plot. The class given is biochemical, uncultured bacterium. Particulars: 50 mM Tris/HCl pH 8.5, 40 mM CaCl2, 60 °C, 20 min; substrate 0.1-10 mM; concentrated extracellular medium of recombinant yeast.

Structures are written as SMILES.

Broadly, the Km is the substrate concentration at which the rate is half of its maximum.

Consider `CCCCCCCCCCCC(=O)Oc1ccc([N+](=O)[O-])cc1` [pNP12, p-nitrophenyl laurate], for which the Km turned out to be 1020 µM.

The record behind these values is paper PMC10781878, “AMWEst, a new thermostable and detergent-tolerant esterase retrieved from the Albian aquifer” (Applied Microbiology and Biotechnology, 2024).
